For orientation: IC50 means the concentration at which inhibition is half-maximal.

In the first assay the test system is IFN induction in dsDNA-stimulated human whole blood. The assay can be described thus: Human whole blood assay (hWB IC50), dsDNA stimulated, IFNα2α production. Format: cell-based. The conditions noted are these: Table 1. On the procedure:
6.3 Method: Human Whole Blood Assay (Human WB IC50)
For the detection of cellular cGAS activity human whole blood was stimulated by transfection with double stranded DNA. Pathway activity was monitored by measuring the IFNα2α production.
Compounds were delivered as 10 mM DMSO solution and serially diluted and transferred to the 96-well cell culture plate (Corning #3595), prefilled with 20 μl OptiMEM (Gibco, #11058-021) in each well, using an Echo acoustic dispenser. Typically, 8 concentrations were used with the highest concentration at 10 μM in the final assay volume followed by ^˜1:5 dilution steps. DMSO concentration was set to 0.1% in the final assay volume. The 96-well assay plate contained 10 test compounds, and DMSO in control wells.
Collection of human whole blood from 3 or more healthy donors (male or female, no medication for 7 days except contraceptive and thyroxine) as Na-Citrate blood (e.g. 3.8% in Monovettes from Sarstedt) was conducted in parallel. Whole blood was kept at room temperature for a maximum of 3 hours after collection until use in the assay. 160 μl of the whole blood samples was transferred to each well of the 96-well assay plates filled with compound/OptiMEM. All assay plates were prepared as duplicates with blood from different donors. Blood plates were kept at room temperature for 60 minutes and continuous shaking with 450 rpm, covered with the lid, but not sealed.
20 μl OptiMEM and 9.6:1 Fugene was added to all low control wells.
After covering assay plates with aera seals and the lid, blood plates were kept at room temperature for 30 minutes and continuous shaking with 450 rpm, followed by an overnight incubation of 22 h at 37° C. in the incubator, without shaking.
For the detection of IFNα-2α in human plasma, the biotinylated capture antibody (Antibody set IFNA2, Meso Scale Diagnostics #B21VH-3, including coating and capture antibody) was diluted 1:17.5 in Diluent 100 (Meso Scale Diagnostics #R50AA-4), according to the manufacturer's directions. U-Plex MSD GOLD 96-well Small Spot Strepavidin SECTOR Plates (Meso Scale Diagnostics #L45SA-5) were coated with 25 μl diluted capture antibody. Coated plates were incubated for 60 min at room temperature under continuous shaking at 700 rpm. MSD IFNα-2α plates were washed three times with 150 μl wash buffer (1× HBSS, 0.05% Tween).
After blocking the plates with 100 μl block solution/well (1× HBSS with 0.2% Tween, 2% BSA) for 60 min at room temperature and continuous shaking at 700 rpm, plates were emptied as dry as possible by dumping just before continuing with the human plasma.
Whole Blood assay plates were centrifuged at 1600 rpm for 10 minutes. 25 μl of supernatant was transferred with a pipetting robot from each whole blood plate to the corresponding IFNα-2α plate. Plates were sealed with microplate seals and kept at room temperature again under continuous shaking at 700 rpm for two hours.
Next MSD IFNα-2α plates were washed three times with 150 μl wash buffer (1× HBSS, 0.05% Tween), before adding 25 μl MSD SULFO-TAG IFNα-2α Antibody solution (1:100 diluted in Diluent 3 (Meso Scale Diagnostics #R50AP-2) to each well of the plates.
Afterwards plates were sealed with microplate seals and kept at room temperature again under continuous shaking at 700 rpm for two hours. Finally, MSD IFNα-2α plates were washed three times with 150 μl wash buffer (1× HBSS, 0.05% Tween). 150 μl 2× Read buffer was added to each well and plates were immediately measured with the MSD Sector S600 Reader using the vendor barcode.
(§1) Data Evaluation and Calculation:
For data evaluation and calculation, % control calculation of each well was based on the mean of high (DNA stimulated control) and mean of low (unstimulated control) controls by using the following formula:
[counts(sample)−counts(low))/(counts(high)−counts(low))]*100
The IC50-values were calculated using the standard 4 parameter logistic regression formula. […]
Consider `C[C@@H]1CN2CC[C@H]1n1c(nc3ccccc31)O[C@H]1C[C@@H](C(=O)O)N(C1)c1nc(nc3c1oc1ccccc13)CCCCCOC2=O` [Example 10.01], for which the IC50 stood at 439 nM.

In the case of `C[C@H]1CN2CC[C@@H]1n1c(nc3cc(F)ccc31)O[C@H]1C[C@@H](C(=O)O)N(C1)c1nc(nc3c1oc1ccccc13)C(F)(F)CCCCC(F)(F)C2=O` [Example 1.18], the IC50 is 10 nM.

Take `C[C@H]1CN2CC[C@@H]1n1c(nc3ccccc31)O[C@H]1C[C@@H](C(=O)O)N(C1)c1nc(nc3c1oc1ccccc13)CCCCCOC2=O` [Example 10.02]: the half-maximal inhibitory concentration (IC50) amounted to 83 nM.

`O=C(O)[C@@H]1C[C@H]2CN1c1nc(nc3c1oc1ccccc13)COCCCCCC(=O)N1CCC(CC1)n1c(nc3cccc(F)c31)O2` [Example 5.01] came in with an IC50 of 33 nM.

On to `C[C@H]1CN2CC[C@@H]1n1c(nc3ccccc31)O[C@H]1C[C@@H](C(=O)O)N(C1)c1nc(nc3c1oc1ccccc13)CCCC(C)(C)CCC2=O` [Example 1.23], for which half-maximal inhibition (IC50) was put at 143 nM.

Consider `Cc1cccc2c1nc1n2[C@@H]2CCN(C[C@H]2C)C(=O)CCCCCC(F)(F)c2nc(c3oc4ccccc4c3n2)N2C[C@H](C[C@H]2C(=O)O)O1` [Example 1.27], for which the IC50 worked out at 1580 nM.

Compound `C[C@H]1CN2CC[C@@H]1n1c(nc3ccccc31)O[C@H]1C[C@@H](C(=O)O)N(C1)c1nc(nc3c1oc1cc(Cl)ccc13)CCOCCCC2=O` [Example 1.07] had an IC50 of 13 nM.

In turn, `C[C@H]1CCCCC(=O)N2CCC(CC2)n2c(nc3ccccc32)O[C@H]2C[C@@H](C(=O)O)N(C2)c2nc1nc1c2oc2ccccc21` [Example 1.25] had an IC50 of 41 nM.

In the case of `C[C@H]1CN2CC[C@@H]1n1c(nc3ccccc31)O[C@H]1C[C@@H](C(=O)O)N(C1)c1nc(nc3c1oc1ccccc13)C(F)(F)COCCCCC2=O` [Example 3.01], inhibition was half-maximal at 1 nM (IC50).

`C[C@@H]1CCCCC(=O)N2CCC(CC2)n2c(nc3ccccc32)O[C@H]2C[C@@H](C(=O)O)N(C2)c2nc1nc1c2oc2ccccc21` [Example 1.26]: the IC50 came out at 19 nM.

In turn, `C[C@H]1CN2CC[C@@H]1n1c(nc3ccccc31)O[C@H]1C[C@@H](C(=O)O)N(C1)c1nc(nc3c1oc1ccccc13)CCCCCN(C)C2=O` [Example 13.01] registered an IC50 of 186 nM.

On to `O=C(O)[C@@H]1C[C@H]2CN1c1nc(nc3c1oc1ccccc13)CCOCCCC(=O)N1CCC(CC1)n1c(nc3ccc(F)cc31)O2` [Example 1.04], for which the IC50 was found to be 44 nM.

For the next assay, the system named is IFN induction in virus-stimulated THP1 cells. The assay can be described thus: Human cGAS cell assay, virus-stimulated THP1-Dual cells (THP1(vir) IC50). In kind it is cell-based. The conditions noted are these: THP-1, 18 h, Table 1, baculovirus-stimulated THP1-Dual cells, Lucia luciferase, 18 h, read-out: THP(vir) IC50.
From the text: 6.2 Method: Human cGAS Cell Assay and cGAMP Stimulated Counter Cell Assay (THP1(vir) IC50 and THP1(cGAMP) IC50)
THP1-Dual™ cells (InvivoGen #thpd-nfis) expressing IRF dependent Lucia luciferase reporter were used as basis for both assays. For the detection of cellular cGAS activity cells were stimulated by a baculovirus (pFastbac-1, Invitrogen, no coding insert) infection that delivers the cGAS enzyme stimulating double-stranded DNA (measurement of THP1(vir) IC50).
Pathway activity was monitored by measuring the Lucia luciferase activity induced by either DNA stimulated cGAS enzyme activity (measurement of THP1(vir) IC50) or by cGAMP directly (measurement of THP1(cGAMP) IC50, counter assay).
Compounds were delivered in 10 mM DMSO solution, serially diluted and transferred to the 384 well assay plate (Greiner #781201) using an Echo acoustic dispenser. Typically, 8 concentrations were used with the highest concentration at 10 μM in the final assay volume followed by ^˜1:5 dilution steps. DMSO concentration was set to 1% in the final assay volume. The 384 well assay plate contained […] (column 1-22), and DMSO in column 23 and 24.
Cells, cultivated according to manufacturer conditions, were harvested by centrifugation at 300 g/10 min and were then resuspended and diluted to 1.66E5 cells/ml in fresh cell culture medium (RPMI 1640 (Gibco #A10491-01), 10% FCS (Gibco #10500), 1× GlutaMax (Gibco #35050-061), 1× Pen/Strep solution (Gibco #15140-122), 100 μg/ml Normocin (InvivoGen #ant-nr), 100 μg/ml Zeocin (InvivoGen #ant-zn), 10 μg/ml Blasticidin S (Life Technologies #A11139-03)). The baculovirus solution was then added 1:200 (have varied according to virus batch) to the cells (measurement of THP1(vir) IC50).
30 μL of the cell/virus-mix were added to each well of the compound plate from column 1-23 via MultiDrop Combi dispenser (5000 cells/well). In column 24, 30 μl/5000 cells/well without virus were added as a low control.
The plates were then incubated for 18 h at 37° C. in a humidified incubator.
Following that, 15 μL of QuantiLuc detection reagent (InvivoGen #rep-qlcg5) were added to each well using a MultiDrop Combi. Measurement was done immediately after the addition using an EnVision reader (US-luminescence read-mode).
as §1
For data evaluation and calculation, the measurement of the low control was set as 0% control and the measurement of the high control was set as 100% control. The IC50 values were calculated using the standard 4 parameter logistic regression formula. Calculation: [y=(a−d)/(1+(x/c)^b)+d], a=low value, d=high value; x=conc M; c=IC50 M; b=slope
For the compound `C[C@@H]1CN2CC[C@H]1n1c(nc3ccccc31)O[C@H]1C[C@@H](C(=O)O)N(C1)c1nc(nc3c1oc1ccccc13)CCCCCOC2=O` [Example 10.01], the half-inhibitory concentration (IC50) turned out to be 180 nM.

In the case of `C[C@H]1CN2CC[C@@H]1n1c(nc3cc(F)ccc31)O[C@H]1C[C@@H](C(=O)O)N(C1)c1nc(nc3c1oc1ccccc13)C(F)(F)CCCCC(F)(F)C2=O` [Example 1.18], the IC50 was determined as 37 nM.

Take `C[C@H]1CN2CC[C@@H]1n1c(nc3ccccc31)O[C@H]1C[C@@H](C(=O)O)N(C1)c1nc(nc3c1oc1ccccc13)CCCCCOC2=O` [Example 10.02]: the half-maximal inhibitory concentration (IC50) came to 64 nM.

Consider `O=C(O)[C@@H]1C[C@H]2CN1c1nc(nc3c1oc1ccccc13)COCCCCCC(=O)N1CCC(CC1)n1c(nc3cccc(F)c31)O2` [Example 5.01], for which the IC50 was 38 nM.

For the compound `C[C@H]1CN2CC[C@@H]1n1c(nc3ccccc31)O[C@H]1C[C@@H](C(=O)O)N(C1)c1nc(nc3c1oc1ccccc13)CCCC(C)(C)CCC2=O` [Example 1.23], the half-inhibitory concentration (IC50) was 190 nM.

In the case of `Cc1cccc2c1nc1n2[C@@H]2CCN(C[C@H]2C)C(=O)CCCCCC(F)(F)c2nc(c3oc4ccccc4c3n2)N2C[C@H](C[C@H]2C(=O)O)O1` [Example 1.27], the IC50 came out at 180 nM.

For `C[C@H]1CN2CC[C@@H]1n1c(nc3ccccc31)O[C@H]1C[C@@H](C(=O)O)N(C1)c1nc(nc3c1oc1cc(Cl)ccc13)CCOCCCC2=O` [Example 1.07], the IC50 stood at 6.5 nM.

As for `C[C@H]1CCCCC(=O)N2CCC(CC2)n2c(nc3ccccc32)O[C@H]2C[C@@H](C(=O)O)N(C2)c2nc1nc1c2oc2ccccc21` [Example 1.25], the concentration for half-maximal inhibition (IC50) was 8 nM.

On to `C[C@H]1CN2CC[C@@H]1n1c(nc3ccccc31)O[C@H]1C[C@@H](C(=O)O)N(C1)c1nc(nc3c1oc1ccccc13)C(F)(F)COCCCCC2=O` [Example 3.01], for which the IC50 was determined as 0.44 nM.

With `C[C@@H]1CCCCC(=O)N2CCC(CC2)n2c(nc3ccccc32)O[C@H]2C[C@@H](C(=O)O)N(C2)c2nc1nc1c2oc2ccccc21` [Example 1.26], the half-inhibitory concentration (IC50) is 5.5 nM.

On to `C[C@H]1CN2CC[C@@H]1n1c(nc3ccccc31)O[C@H]1C[C@@H](C(=O)O)N(C1)c1nc(nc3c1oc1ccccc13)CCCCCN(C)C2=O` [Example 13.01], for which the concentration for half-maximal inhibition (IC50) stood at 500 nM.

`O=C(O)[C@@H]1C[C@H]2CN1c1nc(nc3c1oc1ccccc13)CCOCCCC(=O)N1CCC(CC1)n1c(nc3ccc(F)cc31)O2` [Example 1.04]: the IC50 was found to be 44 nM.
